Target: Xanthine dehydrogenase/oxidase (Homo sapiens, UniProt P47989)
Assay: xanthine oxidase activity: Xanthine oxidase inhibition was determined using a standard fluorescence-based assay for xanthine oxidase activity (McHale A, Grimes H, Coughlan M P: Int J Biochem. 10:317-9, 1979) with minor variations. […] Experiments on test compounds were performed in triplicate in multi-well plates using 10 concentrations of each compound that ranged over a 3-fold dilution.

Xanthine dehydrogenase/oxidase, sequence (P47989 whole entry): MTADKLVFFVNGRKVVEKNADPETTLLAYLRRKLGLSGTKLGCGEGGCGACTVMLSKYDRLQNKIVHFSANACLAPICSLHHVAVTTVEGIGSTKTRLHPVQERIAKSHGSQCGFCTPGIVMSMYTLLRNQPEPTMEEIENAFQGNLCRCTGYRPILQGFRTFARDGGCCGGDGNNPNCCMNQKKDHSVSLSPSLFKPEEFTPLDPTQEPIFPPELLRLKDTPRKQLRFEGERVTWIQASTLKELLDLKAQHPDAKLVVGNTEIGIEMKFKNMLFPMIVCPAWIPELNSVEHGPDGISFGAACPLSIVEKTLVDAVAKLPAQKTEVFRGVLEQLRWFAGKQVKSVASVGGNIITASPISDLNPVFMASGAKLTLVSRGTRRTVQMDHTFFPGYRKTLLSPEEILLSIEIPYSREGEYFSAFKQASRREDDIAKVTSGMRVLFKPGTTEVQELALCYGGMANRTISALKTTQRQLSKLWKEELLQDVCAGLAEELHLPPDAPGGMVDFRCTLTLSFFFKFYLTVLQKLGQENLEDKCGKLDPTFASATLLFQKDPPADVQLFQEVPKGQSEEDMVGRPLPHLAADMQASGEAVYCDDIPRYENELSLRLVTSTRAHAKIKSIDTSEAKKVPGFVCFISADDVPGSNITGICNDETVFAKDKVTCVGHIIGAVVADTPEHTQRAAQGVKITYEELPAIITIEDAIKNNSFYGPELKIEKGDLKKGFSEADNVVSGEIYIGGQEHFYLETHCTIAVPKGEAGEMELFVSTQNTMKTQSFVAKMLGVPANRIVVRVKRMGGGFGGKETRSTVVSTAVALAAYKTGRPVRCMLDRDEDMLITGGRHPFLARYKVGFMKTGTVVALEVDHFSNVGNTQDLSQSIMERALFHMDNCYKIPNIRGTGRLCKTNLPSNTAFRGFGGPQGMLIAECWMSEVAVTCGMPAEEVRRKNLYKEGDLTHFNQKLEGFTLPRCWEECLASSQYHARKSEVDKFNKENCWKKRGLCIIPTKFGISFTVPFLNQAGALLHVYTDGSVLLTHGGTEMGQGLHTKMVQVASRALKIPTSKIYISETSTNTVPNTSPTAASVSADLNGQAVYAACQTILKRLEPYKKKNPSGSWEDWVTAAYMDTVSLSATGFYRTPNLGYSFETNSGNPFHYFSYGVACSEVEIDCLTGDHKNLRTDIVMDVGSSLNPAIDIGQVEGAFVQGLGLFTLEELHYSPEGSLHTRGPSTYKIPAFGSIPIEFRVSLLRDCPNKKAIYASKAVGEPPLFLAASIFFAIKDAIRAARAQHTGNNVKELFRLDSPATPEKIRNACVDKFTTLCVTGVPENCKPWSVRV

`O=C(O)CSc1nnc(Br)n1-c1ccc(C2CC2)c2ccccc12` was tested, and the IC50 was over 300 µM.

— ChEMBL document CHEMBL5725750, “Bifunctional compounds and use for reducing uric acid levels” (2018)
